Tests used:
[1] = target: T1, Ubiquitin carboxyl-terminal hydrolase 25 (Homo sapiens, UniProt Q9UHP3); experiment: Biochemical Assay
T1 sequence (Q9UHP3 whole entry): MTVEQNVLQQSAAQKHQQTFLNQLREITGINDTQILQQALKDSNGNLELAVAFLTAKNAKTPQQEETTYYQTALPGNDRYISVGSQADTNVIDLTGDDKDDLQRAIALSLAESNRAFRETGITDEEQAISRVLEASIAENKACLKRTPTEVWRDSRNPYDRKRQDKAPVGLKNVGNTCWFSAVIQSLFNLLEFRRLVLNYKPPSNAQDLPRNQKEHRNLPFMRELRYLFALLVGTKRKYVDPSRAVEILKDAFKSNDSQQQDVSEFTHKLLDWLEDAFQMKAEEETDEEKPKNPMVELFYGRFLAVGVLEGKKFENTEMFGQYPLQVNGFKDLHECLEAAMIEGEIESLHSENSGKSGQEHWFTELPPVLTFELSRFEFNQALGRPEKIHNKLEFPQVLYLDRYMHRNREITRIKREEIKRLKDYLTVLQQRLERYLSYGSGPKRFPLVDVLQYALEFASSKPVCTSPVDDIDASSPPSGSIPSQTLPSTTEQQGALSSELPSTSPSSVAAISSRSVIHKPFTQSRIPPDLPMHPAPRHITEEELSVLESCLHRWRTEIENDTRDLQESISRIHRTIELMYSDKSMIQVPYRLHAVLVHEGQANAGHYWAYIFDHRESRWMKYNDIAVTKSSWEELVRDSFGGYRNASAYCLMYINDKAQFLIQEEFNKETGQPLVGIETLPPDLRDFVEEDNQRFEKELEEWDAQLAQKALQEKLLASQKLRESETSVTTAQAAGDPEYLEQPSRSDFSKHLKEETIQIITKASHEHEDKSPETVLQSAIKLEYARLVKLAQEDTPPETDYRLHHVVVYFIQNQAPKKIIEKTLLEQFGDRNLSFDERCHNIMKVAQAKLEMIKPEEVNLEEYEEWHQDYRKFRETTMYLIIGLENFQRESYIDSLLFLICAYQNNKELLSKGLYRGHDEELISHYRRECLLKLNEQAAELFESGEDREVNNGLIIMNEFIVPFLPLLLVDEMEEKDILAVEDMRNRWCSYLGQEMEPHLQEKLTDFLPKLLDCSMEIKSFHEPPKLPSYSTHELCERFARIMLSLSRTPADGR
Procedure: USP25: The assay was performed in a final volume of 9 μL in assay buffer containing 20 mM Tris-HCl (pH 8.0, (1M Tris-HCl, pH 8.0 solution; Corning 46-031-CM)), 3 mM BME (2-Mercaptoethanol; Sigma 63689-25ML-F), 0.03% BGG (0.22 μM filtered. Sigma, G7516-25G), and 0.01% Triton X-100 (Sigma, T9284-10L). Nanoliter quantities of 10-point, 3-fold serial dilution in DMSO was pre-dispensed into 1536 assay plates (Corning, #3724BC) for a final test concentration of 25 μM to 1.3 nM, top to lowest dose, respectively. Enzyme USP25, construct USP25-His6, (Boston Biochem E-546). Concentration and incubation times were optimized for the maximal signal-to-background while maintaining initial velocity conditions at a fixed substrate concentration. The final concentration of the enzyme in the assay was 75 pM. Final substrate (Ub-Rh110 Ubiquitin-Rhodamine 110, R&D Systems # U-555) concentration was 25 nM with [Ub-Rh110]<<Km. 3 μL of 2× enzyme was added to assay plates (pre-stamped with compound) preincubated with […] for 30 minutes and then 3 μL of 2×Ub-Rh110 was added to assay plates. […] Fluorescence was read on the Envision (Excitation at 485 nm and Emission at 535 nm; Perkin Elmer) or on the PheraSTAR (Excitation at 485 nm and Emission at 535 nm; BMG Labtech).

[2] = target: T2, Ubiquitin carboxyl-terminal hydrolase 28 (Homo sapiens, UniProt Q96RU2); experiment: Biochemical Assay
T2 sequence (Q96RU2 whole entry): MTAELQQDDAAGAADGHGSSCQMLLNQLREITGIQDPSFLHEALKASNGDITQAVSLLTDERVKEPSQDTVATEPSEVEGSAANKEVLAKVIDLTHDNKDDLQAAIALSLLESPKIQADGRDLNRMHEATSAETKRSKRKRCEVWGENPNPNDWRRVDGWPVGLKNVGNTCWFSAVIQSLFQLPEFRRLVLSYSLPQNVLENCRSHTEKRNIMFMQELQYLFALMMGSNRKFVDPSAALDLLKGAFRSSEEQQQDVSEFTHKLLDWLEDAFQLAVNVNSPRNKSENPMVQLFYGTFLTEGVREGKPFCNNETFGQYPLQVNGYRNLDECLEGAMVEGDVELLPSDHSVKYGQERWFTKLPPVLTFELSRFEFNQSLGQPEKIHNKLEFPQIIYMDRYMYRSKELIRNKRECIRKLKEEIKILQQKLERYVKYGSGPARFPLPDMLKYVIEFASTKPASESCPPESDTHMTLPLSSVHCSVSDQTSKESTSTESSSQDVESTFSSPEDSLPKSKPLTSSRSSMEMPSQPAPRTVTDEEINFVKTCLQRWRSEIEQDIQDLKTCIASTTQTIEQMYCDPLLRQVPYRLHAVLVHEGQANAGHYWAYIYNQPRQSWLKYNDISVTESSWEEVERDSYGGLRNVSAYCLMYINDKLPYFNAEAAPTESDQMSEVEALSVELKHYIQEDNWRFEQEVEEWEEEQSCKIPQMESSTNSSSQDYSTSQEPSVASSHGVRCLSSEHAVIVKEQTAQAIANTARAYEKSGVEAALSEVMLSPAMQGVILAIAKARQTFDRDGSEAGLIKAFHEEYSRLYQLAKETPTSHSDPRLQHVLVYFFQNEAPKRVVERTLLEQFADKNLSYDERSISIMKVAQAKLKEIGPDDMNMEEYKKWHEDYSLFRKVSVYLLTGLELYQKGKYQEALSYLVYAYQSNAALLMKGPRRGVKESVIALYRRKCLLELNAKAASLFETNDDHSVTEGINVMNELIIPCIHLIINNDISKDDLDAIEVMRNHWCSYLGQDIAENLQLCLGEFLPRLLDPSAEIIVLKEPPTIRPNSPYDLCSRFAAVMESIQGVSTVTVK
Procedure: USP28: Each assay was performed in a final volume of 20 μL in assay buffer containing 20 mM Tris-HCl (pH 8.0, (1M Tris-HCl, pH 8.0 solution; Corning 46-031-CM)), 2 mM CaCl2) (1M Calcium Chloride solution; Sigma #21114) 2 mM BME (2-Mercaptoethanol; Sigma 63689-25ML-F), 0.01% Prionex (0.22 μM filtered, Sigma # G-0411), and 0.01% Triton X-100. Stock compound solutions were stored at −20° C. as 10 mM in DMSO. Up to 1 month prior to the assay, 2 mM test compounds were pre-dispensed into assay plates (Black, low volume; Corning #3820) and frozen at −20° C. Prestamped assay plates were allowed to come to room temperature on the day of the assay. For the screen, 100 nL of 2 mM was pre-dispensed for a final screening concentration of 10 μM (DMSO(fc)=0.5%). […] Plates were incubated stacked for 90 minutes at room temperature before fluorescence was read on the Envision (Excitation at 485 nm and Emission at 535 nm; Perkin Elmer) or on the PheraSTAR (Excitation at 485 nm and Emission at 535 nm; BMG Labtech).

Cc1cnc2c(N)c(C(=O)NCCc3ccc(N4C5CCC4CNC5)cc3F)sc2n1 [US10889592, Compound I-10]
IC50 [1]: in the range around 1100 nM | IC50 [2]: < 200 nM

Cc1cnc2c(N)c(C(=O)NCCc3c(F)cc(N4C5CCC4CNC5)cc3F)sc2n1 [US10889592, Compound I-11]
IC50 [1]: in the range around 1100 nM | IC50 [2]: in the range around 1100 nM
